Measured values taken from patent publication US20250344697A1, “ENANTIOMERICALLY ENRICHED […] THE CONTROL OF RESISTANT PHYTOPATHOGENIC FUNGI” (SYNGENTA CROP PROTECTION AG, priority 2022, published 2025).

Key:
Experiment in all cases: in vitro antifungal test, Z. tritici spore suspension in PDB
Type in all cases: cell-based
[1] = system: K9021 Zymoseptoria tritici CYP51 L50S V136A I381V Y461S S524T; conditions: isolate K9021; growth at 3 days post exposure; average of two replicates
Procedure: (§1) A panel of 16 Zymoseptoria tritici isolates was subjected to in vitro antifungal tests. Spore suspensions of Z. tritici isolates were prepared in potato dextrose broth (PDB) and exposed to defined concentration ranges of the inhibitors (20ppm starting concentration, dilution steps of 3). A sensitive wild-type isolate was used together with a panel of strains containing variants of the Z. tritici CYP51 gene conferring resistance to DMI fungicides. The DMI-resistant isolates were isolated from wheat in the UK, Ireland, Germany and Russia in 2020. Determination of CYP51 gene variants was achieved using targeted gene sequencing. The half maximal effective concentration (EC50) of the inhibitors were calculated based on growth responses of Z. tritici at 3 days post exposure to the different concentrations of the […] using a linear regression. The Tables A and B show an average of EC50 values in ppm from two replicates, as well as M=(EC50 (enantiomer)/EC50 (racemate))−0.5.

[2] = system: K9022 Zymoseptoria tritici CYP51 L50S V136A I381V Y461S S524T; conditions: isolate K9022; growth at 3 days post exposure; average of two replicates
Procedure: as §1

[3] = system: K9020 Zymoseptoria tritici CYP51 L50S V136A I381V Y461S S524T; conditions: isolate K9020; growth at 3 days post exposure; average of two replicates
Procedure: as §1

[4] = system: K9023 Zymoseptoria tritici CYP51 L50S V136C S188N A379G I381V YG459 S524T; conditions: growth at 3 days post exposure, average of two replicates
Procedure: as §1

[5] = system: K9026 Zymoseptoria tritici CYP51 L50S S188N A379G I381V YG459 N513K; conditions: growth at 3 days post exposure, average of two replicates
Procedure: as §1

[6] = system: K9032 Zymoseptoria tritici CYP51 L50S D134G V136A I381V Y461H S524T; conditions: growth at 3 days post exposure, average of two replicates
Procedure: as §1

[7] = system: K5544 Zymoseptoria tritici (WT); conditions: isolate K5544 (WT); growth at 3 days post exposure; average of two replicates
Procedure: as §1

[8] = system: K9029 Zymoseptoria tritici CYP51 L50S I381V YG459 N513K; conditions: growth at 3 days post exposure, average of two replicates
Procedure: as §1

Row | SMILES | EC50 (ppm) [1] [ppm] | EC50 (ppm) [2] [ppm] | EC50 (ppm) [3] [ppm] | EC50 (ppm) ([4]; isolate K9023, 2nd listed row) | EC50 (ppm) ([4]; isolate K9023, 3rd listed row) | EC50 (ppm) ([4]; isolate K9023) | EC50 (ppm) ([5]; isolate K9026, 1st listed row) | EC50 (ppm) ([5]; isolate K9026, 2nd listed row) | EC50 (ppm) ([5]; isolate K9026, 3rd listed row) | EC50 (ppm) ([6]; isolate K9032, 1st listed row) | EC50 (ppm) ([6]; isolate K9032, 2nd listed row) | EC50 (ppm) ([6]; isolate K9032, 3rd listed row) | EC50 (ppm) [7] [ppm] | EC50 (ppm) ([8]; isolate K9029, 1st listed row) | EC50 (ppm) ([8]; isolate K9029, 2nd listed row) | EC50 (ppm) ([8]; isolate K9029, 3rd listed row)
1 | COC(=O)C(O)(Cn1cncn1)c1ccc(Oc2ccc(Cl)cc2)cc1Cl (racemic) [Racemate Compound I-1] | 0.09 | 0.6 | 0.03 | 0.2 | 0.4 | 0.5 | 10 | 0.1 | 0.1 | 0.2 | 0.1 | 0.1 | 0.03 | 0.8 | 3 | 10
2 | COC(=O)C(O)(Cn1cncn1)c1ccc(Oc2ccc(Cl)cc2)cc1C(F)(F)F (racemic) [Racemate Compound I-2] | 0.09 | 0.7 | 0.03 | 0.1 | 0.3 | 0.3 | 6 | 0.07 | 0.07 | 0.2 | 0.1 | 0.1 | 0.03 | 0.8 | 3 | 10
3 | COC(=O)C(O)(Cn1cncn1)c1ccc(Oc2ccc(Cl)cc2)cc1Cl (single isomer, unassigned; (+)) [(+)-enantiomer of Compound I-1, (+)Methyl 2-[2-chloro-4-(4-chlorophenoxy)phenyl]-2-hydroxy-3-(1,2,4-triazol-1-yl)propanoate] | 5 | 20 | 2 | 9 | 19 | 20 | 20 | 5 | 3 | 12 | 7 | 8 | 1 | 20 | 20 | 20
4 | COC(=O)C(O)(Cn1cncn1)c1ccc(Oc2ccc(Cl)cc2)cc1C(F)(F)F (single isomer, unassigned; (+)) [(+)-enantiomer of Compound I-2] | 3 | >20 | 1 | 6 | 9 | 9 | >20 | 3 | 2 | 7 | 4 | 4 | 0.5 | >20 | >20 | >20
